IC50 data for 3 molecules are collected here from publication PMC6359172, “Symmetrical Heterocyclic Cage Skeleton: Synthesis, Urease Inhibition Activity, Kinetic Mechanistic Insight, and Molecular Docking Analyses” (Molecules, 2019).

Read-outs that look alike come from different tables or passages of the source.

What is called IC50 is the concentration that inhibits the measured activity by half.

The assay addresses T1, jack bean urease (Canavalia ensiformis, UniProt P07374).
T1 construct: purchased Sigma (St. Louis, MO, USA)
Kind of assay: biochemical. The procedure:
The urease activity was determined by measuring the amount of ammonia produced with the indophenols method previously described. The reaction mixtures, comprising 20 µL of enzyme (jack bean urease, 5 U/mL) and 20 μL of test compounds in 50 μL buffer (100 mM urea, 0.01 M K2HPO4, 1 mM EDTA, and 0.01 M […], pH 8.2), were incubated for 30 min at 37 °C in a 96-well plate. Briefly, 50 μL each of phenol reagents (1%, w/v phenol and 0.005%, w/v sodium nitroprusside) and 50 μL of alkali reagent (0.5%, w/v NaOH and 0.1% active chloride NaOCl) were added to each well. The absorbance at 625 nm was measured after 10 min, using a microplate reader (OPTI Max, Tunable). All reactions were performed in triplicate. The urease inhibition activities were calculated according to the following formula:Urease inhibition activity (%) = (ODcontrol − ODsample × 100)/ODcontrol where ODcontrol and ODsample represents the optical densities in the absence and presence of the sample, respectively. Thiourea was used as the standard inhibitor for urease.

T1 sequence (P07374 whole entry, looked up): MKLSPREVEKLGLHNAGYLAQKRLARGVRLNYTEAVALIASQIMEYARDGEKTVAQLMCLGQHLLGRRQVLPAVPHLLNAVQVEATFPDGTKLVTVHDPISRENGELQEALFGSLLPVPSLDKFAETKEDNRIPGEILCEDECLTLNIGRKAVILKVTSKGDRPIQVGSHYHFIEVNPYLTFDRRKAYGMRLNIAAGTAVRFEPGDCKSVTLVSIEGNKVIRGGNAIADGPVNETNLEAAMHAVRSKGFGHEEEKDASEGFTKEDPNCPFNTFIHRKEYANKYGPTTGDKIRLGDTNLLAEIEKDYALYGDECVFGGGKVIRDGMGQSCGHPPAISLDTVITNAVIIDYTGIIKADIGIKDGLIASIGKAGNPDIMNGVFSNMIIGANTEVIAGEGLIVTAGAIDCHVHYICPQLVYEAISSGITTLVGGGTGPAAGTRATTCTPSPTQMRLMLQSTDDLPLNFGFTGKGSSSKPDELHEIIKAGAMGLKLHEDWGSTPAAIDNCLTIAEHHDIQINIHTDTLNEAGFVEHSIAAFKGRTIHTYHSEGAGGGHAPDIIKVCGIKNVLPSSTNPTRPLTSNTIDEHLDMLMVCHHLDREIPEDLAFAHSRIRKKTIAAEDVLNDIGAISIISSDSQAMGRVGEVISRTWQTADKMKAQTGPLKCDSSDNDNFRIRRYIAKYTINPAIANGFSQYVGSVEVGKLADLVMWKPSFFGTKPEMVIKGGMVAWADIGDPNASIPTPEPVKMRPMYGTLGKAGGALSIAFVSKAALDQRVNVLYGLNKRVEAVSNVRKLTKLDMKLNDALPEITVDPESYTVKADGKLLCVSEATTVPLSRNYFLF

In turn, `COc1ccc(-c2n[nH]c(=O)n2/N=C/c2cccc(/C=N/n3c(-c4ccc(OC)cc4)n[nH]c3=O)n2)cc1` [Compound 3] had an IC50 of 18.9 ± 1.81 µM.

`COc1ccc(-c2n[nH]c(=S)n2/N=C/c2cccc(/C=N/n3c(-c4ccc(OC)cc4)n[nH]c3=S)n2)cc1` [Compound 4] gave an IC50 of 29.3 ± 3.32 µM.

In the case of `NC(N)=S` [Thio-Urea, Thiourea, reference compound], the IC50 (jack bean urease 5 U/mL, 100 mM urea, pH 8.2, 30 min 37 °C, read-out: Urease Inhibition IC50) was 20.7 ± 0.45 µM.
